Measured values taken from patent publication US11000033B2, “Ketone or oxime compound, and herbicide” (NISSAN CHEMICAL CORPORATION, priority 2014, dated 2021).

Tests used:
Type in all cases: in vivo
Amaranthus retroflexus = assay: Test Example 4: herbicidal effect by soil treatment (symbol N); settings: application herbicide amount 320 g/ha
Method in brief: (§1)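 Seeds were sown in sterilized diluvial soil, covered with about 1.5 cm of soil, and the soil surface was sprayed with a water-diluted emulsion of the compound at a predetermined rate. Plants grew in a greenhouse at 25° C. to 30° C.; effects were scored visually 3 weeks after application.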

[1] = test system: Echinochloa crus-galli var. crus-galli; assay: Test Example 3: herbicidal effect by foliage application, Wagner pot (symbol H); settings: application herbicide amount 320 g/ha
Method in brief: (§2)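 Post-emergence, paddy-type test: seedlings 14 d old in shallow-flooded (0.1–0.5 cm) alluvial soil, 25–30 °C greenhouse. Emulsion diluted to target rate, sprayed on leaves. Read-out: visual effect on each species at 3 weeks, per set criteria.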

Setaria viridis [2] = assay: Test Example 5: herbicidal effect by foliage application, plastic box (symbol G); settings: 320 g/ha, 3 weeks after application
Method in brief: (§3)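 Sowing in sterilized diluvial soil, 14 days' greenhouse growth at 25° C. to 30° C., then uniform small-sprayer foliar application of aqueous emulsion dilution; plants scored three weeks afterwards.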

Abutilon theophrasti [3] = assay: Test Example 4: herbicidal effect by soil treatment (symbol M); settings: application herbicide amount 320 g/ha
Method in brief: as §1

Chenopodium album = assay: Test Example 4: herbicidal effect by soil treatment (symbol O); settings: application herbicide amount 320 g/ha
Method in brief: as §1

Veronica persica = assay: Test Example 4: herbicidal effect by soil treatment (symbol R); settings: application herbicide amount 320 g/ha
Method in brief: as §1

Apera spica-venti [4] = assay: Test Example 5: herbicidal effect by foliage application, plastic box (symbol L); settings: 320 g/ha, 3 weeks after application
Method in brief: as §3

Abutilon theophrasti [5] = assay: Test Example 5: herbicidal effect by foliage application, plastic box (symbol M); settings: 320 g/ha, 3 weeks after application
Method in brief: as §3

rapeseed = assay: Test Example 5: effect on crop by foliage application, plastic box (symbol g); settings: 320 g/ha, 3 weeks after application
Method in brief: (§4)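 Box culture: sterile diluvial soil, seeds spot-sown, ~1.5 cm cover, raised under glass at 25–30° C.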

Stellaria media [6] = assay: Test Example 4: herbicidal effect by soil treatment (symbol P); settings: application herbicide amount 320 g/ha
Method in brief: as §1

Leptochloa chinensis = assay: Test Example 3: herbicidal effect by foliage application, Wagner pot (symbol D); settings: application herbicide amount 320 g/ha
Method in brief: as §2

[7] = test system: Echinochloa crus-galli var. crus-galli; assay: Test Example 5: herbicidal effect by foliage application, plastic box (symbol H); settings: 320 g/ha, 3 weeks after application
Method in brief: as §3

Digitaria ciliaris = assay: Test Example 4: herbicidal effect by soil treatment (symbol F); settings: application herbicide amount 320 g/ha
Method in brief: as §1

rice plant = assay: Test Example 5: effect on crop by foliage application, plastic box (symbol b); settings: 320 g/ha, 3 weeks after application
Method in brief: as §4

Stellaria media [8] = assay: Test Example 5: herbicidal effect by foliage application, plastic box (symbol P); settings: 320 g/ha, 3 weeks after application
Method in brief: as §3

[9] = test system: directly sowed rice plant; assay: Test Example 3: effect on crop by foliage application, Wagner pot (symbol b); settings: application herbicide amount 320 g/ha
Method in brief: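 Steps: fill a 1/10000-are Wagner pot with alluvial soil; add water and mix to submerge at 0.1–0.5 cm depth; sow rice plus Echinochloa crus-galli var. crus-galli, Leptochloa chinensis and Cyperus difformis; grow in a 25–30 °C greenhouse.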

Apera spica-venti [10] = assay: Test Example 4: herbicidal effect by soil treatment (symbol L); settings: application herbicide amount 320 g/ha
Method in brief: as §1

Avena fatua = assay: Test Example 5: herbicidal effect by foliage application, plastic box (symbol I); settings: 320 g/ha, 3 weeks after application
Method in brief: as §3

beet = assay: Test Example 5: effect on crop by foliage application, plastic box (symbol f); settings: 320 g/ha, 3 weeks after application
Method in brief: as §4

Galium spurium = assay: Test Example 4: herbicidal effect by soil treatment (symbol Q); settings: application herbicide amount 320 g/ha
Method in brief: as §1

Setaria viridis [11] = assay: Test Example 4: herbicidal effect by soil treatment (symbol G); settings: application herbicide amount 320 g/ha
Method in brief: as §1

Lolium multiflorum Lam. = assay: Test Example 4: herbicidal effect by soil treatment (symbol K); settings: application herbicide amount 320 g/ha
Method in brief: as §1

transplanted rice plant = assay: Test Example 1: effect on crop, application before weed generation in submerged conditions (symbol a); settings: application herbicide amount 320 g/ha
Method in brief: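 Alluvial soil pots flooded to 4 cm water, sown with Echinochloa oryzacola, Scirpus juncoides and Monochoria vaginalis, then transplanted with 2.5 leaf stage rice seedlings; pre-emergence application. Greenhouse 25° C. to 30° C.; scored 0–5 by herbicidal ratio 3 weeks after application.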

Row | SMILES | N: Amaranthus retroflexus, herbicidal effect grade (Amaranthus retroflexus) | herbicidal effect on H (Echinochloa crus-galli var. crus-galli), grade 0-5 [1] | M: Abutilon theophrasti, herbicidal effect grade (Abutilon theophrasti [3]) | O: Chenopodium album, herbicidal effect grade (Chenopodium album) | R: Veronica persica, herbicidal effect grade (Veronica persica) | P: Stellaria media, herbicidal effect grade (Stellaria media [6]) | herbicidal effect on D (Leptochloa chinensis), grade 0-5 (Leptochloa chinensis) | F: Digitaria ciliaris, herbicidal effect grade (Digitaria ciliaris) | effect on crop b (directly sowed rice plant), grade 0-5 [9] | L: Apera spica-venti, herbicidal effect grade (Apera spica-venti [10]) | Q: Galium spurium, herbicidal effect grade (Galium spurium) | G: Setaria viridis, herbicidal effect grade (Setaria viridis [11]) | K: Lolium multiflorum Lam., herbicidal effect grade (Lolium multiflorum Lam.) | Effect grade on crop, a: transplanted rice plant (transplanted rice plant) | G: Setaria viridis, herbicidal effect (criteria of Test Example 1) (Setaria viridis [2]) | L: Apera spica-venti, herbicidal effect (criteria of Test Example 1) (Apera spica-venti [4]) | M: Abutilon theophrasti, herbicidal effect (criteria of Test Example 1) (Abutilon theophrasti [5]) | H: Echinochloa crus-galli var. crus-galli, herbicidal effect (criteria of Test Example 1) [7] | b: directly sowed rice plant, effect on crop (criteria of Test Example 1) (rice plant) | P: Stellaria media, herbicidal effect (criteria of Test Example 1) (Stellaria media [8]) | other results
1 | CON=C(C)CC1CC(O)=C(c2c(C)cc(-c3ccccn3)cc2C)C1=O (mixture of isomers) [6-051] | 5 (Herbicidal ratio of 90% or more (almost completely withered)) | 5 (Herbicidal ratio of 90% or more (almost completely withered)) | 1 (Herbicidal ratio of 5% or higher and lower than 20%) | 0 (Herbicidal ratio of 5% or lower (almost no effect)) | 0 (Herbicidal ratio of 5% or lower (almost no effect)) | 2 (Herbicidal ratio of 20% or higher and lower than 40%) | 5 (Herbicidal ratio of 90% or more (almost completely withered)) | 5 (Herbicidal ratio of 90% or more (almost completely withered)) | 5 (Herbicidal ratio of 90% or more (almost completely withered)) | 5 (Herbicidal ratio of 90% or more (almost completely withered)) | 0 (Herbicidal ratio of 5% or lower (almost no effect)) | 5 (Herbicidal ratio of 90% or more (almost completely withered)) | 5 (Herbicidal ratio of 90% or more (almost completely withered)) | 5 (Herbicidal ratio of 90% or more (almost completely withered)) | – | – | – | – | – | – | G: Setaria viridis, herbicidal effect grade (Setaria viridis [2]): 5 (Herbicidal ratio of 90% or more (almost completely withered)); L: Apera spica-venti, herbicidal effect grade (Apera spica-venti [4]): 5 (Herbicidal ratio of 90% or more (almost completely withered)); M: Abutilon theophrasti, herbicidal effect grade (Abutilon theophrasti [5]): 1 (Herbicidal ratio of 5% or higher and lower than 20%); g: rapeseed, effect on crop grade (rapeseed): 5 (Herbicidal ratio of 90% or more (almost completely withered)); H: Echinochloa crus-galli var. crus-galli, herbicidal effect grade [7]: 5 (Herbicidal ratio of 90% or more (almost completely withered)); b: directly sowed rice plant, effect on crop grade (rice plant): 5 (Herbicidal ratio of 90% or more (almost completely withered)); P: Stellaria media, herbicidal effect grade (Stellaria media [8]): 4 (Herbicidal ratio of 70% or higher and lower than 90%); I: Avena fatua, herbicidal effect grade (Avena fatua): 4 (Herbicidal ratio of 70% or higher and lower than 90%); f: beet, effect on crop grade (beet): 3 (Herbicidal ratio of 40% or higher and lower than 70%)
2 | CON=C(C)CC1CC(O)=C(c2c(C)cc(-c3ncccn3)cc2C)C1=O (mixture of isomers) [6-057] | 0 (Herbicidal ratio of 5% or lower (almost no effect)) | 5 (Herbicidal ratio of 90% or more (almost completely withered)) | 0 (Herbicidal ratio of 5% or lower (almost no effect)) | 0 (Herbicidal ratio of 5% or lower (almost no effect)) | 0 (Herbicidal ratio of 5% or lower (almost no effect)) | 0 (Herbicidal ratio of 5% or lower (almost no effect)) | 5 (Herbicidal ratio of 90% or more (almost completely withered)) | 5 (Herbicidal ratio of 90% or more (almost completely withered)) | 5 (Herbicidal ratio of 90% or more (almost completely withered)) | 4 (Herbicidal ratio of 70% or higher and lower than 90%) | 0 (Herbicidal ratio of 5% or lower (almost no effect)) | 5 (Herbicidal ratio of 90% or more (almost completely withered)) | 5 (Herbicidal ratio of 90% or more (almost completely withered)) | 5 (Herbicidal ratio of 90% or more (almost completely withered)) | 5 (Herbicidal ratio of 90% or more (almost completely withered)) | 5 (Herbicidal ratio of 90% or more (almost completely withered)) | 1 (Herbicidal ratio of 5% or higher and lower than 20%) | 5 (Herbicidal ratio of 90% or more (almost completely withered)) | 5 (Herbicidal ratio of 90% or more (almost completely withered)) | 4 (Herbicidal ratio of 70% or higher and lower than 90%) | g: rapeseed, effect on crop (criteria of Test Example 1) (rapeseed): 5 (Herbicidal ratio of 90% or more (almost completely withered)); I: Avena fatua, herbicidal effect (criteria of Test Example 1) (Avena fatua): 5 (Herbicidal ratio of 90% or more (almost completely withered)); f: beet, effect on crop (criteria of Test Example 1) (beet): 0 (Herbicidal ratio of 5% or lower (almost no effect))
3 | CCc1cc(-c2ccc(Cl)cc2)cc(C)c1C1=C(O)CC(CC(C)=NOC)C1=O (centres unmarked) [6-066] | 2 (Herbicidal ratio of 20% or higher and lower than 40%) | 5 (Herbicidal ratio of 90% or more (almost completely withered)) | 0 (Herbicidal ratio of 5% or lower (almost no effect)) | 0 (Herbicidal ratio of 5% or lower (almost no effect)) | 3 (Herbicidal ratio of 40% or higher and lower than 70%) | 0 (Herbicidal ratio of 5% or lower (almost no effect)) | 5 (Herbicidal ratio of 90% or more (almost completely withered)) | 5 (Herbicidal ratio of 90% or more (almost completely withered)) | 5 (Herbicidal ratio of 90% or more (almost completely withered)) | 5 (Herbicidal ratio of 90% or more (almost completely withered)) | 0 (Herbicidal ratio of 5% or lower (almost no effect)) | 5 (Herbicidal ratio of 90% or more (almost completely withered)) | 5 (Herbicidal ratio of 90% or more (almost completely withered)) | 3 (Herbicidal ratio of 40% or higher and lower than 70%) | 5 (Herbicidal ratio of 90% or more (almost completely withered)) | 5 (Herbicidal ratio of 90% or more (almost completely withered)) | 3 (Herbicidal ratio of 40% or higher and lower than 70%) | 5 (Herbicidal ratio of 90% or more (almost completely withered)) | 5 (Herbicidal ratio of 90% or more (almost completely withered)) | 3 (Herbicidal ratio of 40% or higher and lower than 70%) | I: Avena fatua, herbicidal effect (criteria of Test Example 1) (Avena fatua): 5 (Herbicidal ratio of 90% or more (almost completely withered)); f: beet, effect on crop (criteria of Test Example 1) (beet): 0 (Herbicidal ratio of 5% or lower (almost no effect))
